Data from US20080221193A1, “3-AMINO CHROMANE DERIVATIVES” (Wyeth, priority 2006, published 2008).

Key:
human 5-HT1A receptors [1] = target: T1, human 5-HT1A receptors (Homo sapiens, UniProt P08908); assay: 8-OH-DPAT binding in CHO cells stably transfected with human 5HT1a receptor; conditions: displacement of [3H]8-OH-DPAT, CHO cells with human 5-HT1A; read-out: 5-HT1A Receptor Affinity Ki
T1 construct: expressed in transfected cells; host or cells: CHO cells, stably transfected
T1 sequence (P08908 1-422): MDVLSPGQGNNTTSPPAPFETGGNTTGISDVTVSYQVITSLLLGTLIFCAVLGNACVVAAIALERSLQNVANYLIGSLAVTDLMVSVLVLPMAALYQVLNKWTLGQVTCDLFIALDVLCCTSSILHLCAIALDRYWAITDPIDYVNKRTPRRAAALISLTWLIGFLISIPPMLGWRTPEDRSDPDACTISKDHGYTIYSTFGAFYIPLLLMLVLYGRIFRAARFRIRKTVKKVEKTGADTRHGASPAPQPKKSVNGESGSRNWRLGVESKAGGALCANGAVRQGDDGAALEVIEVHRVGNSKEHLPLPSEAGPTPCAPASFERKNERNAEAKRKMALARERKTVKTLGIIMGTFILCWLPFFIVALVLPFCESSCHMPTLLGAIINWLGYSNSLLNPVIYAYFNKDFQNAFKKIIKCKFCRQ
Experimental: High affinity for the serotonin 5-HT1A receptor was established by testing the claimed compound's ability to displace [^3H] 8-OH-DPAT (dipropylaminotetralin) from the 5-HT1A serotonin receptor following a modification of the procedure of Hall et al., (J. Neurochem., 1985, 44: 1685) which utilizes CHO cells stably transfected with human 5-HT1A receptors.
Stabily transfected CHO cells were grown in DMEM containing 10% heat inactivated FBS and non-essential amino acids. Cells were scraped off the plate, transferred to centrifuge tubes, and washed twice by centrifugation (2000 rpm for 10 min., 4° C.) in buffer (50 mM Tris pH 7.5). The resulting pellets were aliquoted and placed at −80° C. On day of assay, the cells were thawed on ice, and resuspended in buffer. The binding assay was performed in a 96 well microtiter plate in a total volume of […].
Non-specific binding was determined in the presence of […] 5HT, final ligand concentration is 1.5 nM. Following a 30 minute incubation at room temperature, the reaction was terminated by the addition of ice cold buffer and rapid filtration through a GF/B filter presoaked for 30 minutes in 0.5% PEI. Compounds were initially tested in a single point assay to determine percent inhibition at […]. Subsequently, Ki values were determined for compounds defined to be active.

h5-HT Transporter = h5-HT Transporter (Homo sapiens, UniProt P31645); assay: h5-HT Transporter Function (Table 1); format: biochemical
human 5-HT1A receptors [2] = target: T1, human 5-HT1A receptors; assay: 35S-GTPγS binding assay, membranes containing cloned human 5-HT1A receptors; format: biochemical; conditions: for IC50: read-out: 5-HT1A Function GTPγS IC50
Source text: (§1) The agonist or antagonist activity at 5-HT1A receptors was established by using two different assays. The ^35S-GTPγS binding assay similar to that used by Lazareno and Birdsall (Br. J. Pharmacol., 1993, 109: 1120) was used to determine the test compound's ability to affect the binding of ^35S-GTPγS to membranes containing cloned human 5-HT1A receptors. Agonists produce an increase in binding whereas antagonists produce no increase but rather reverse the effects of the standard agonist 8-OH-DPAT. The test compound's maximum stimulatory effect is represented as the Emax, while its potency is defined by the EC50. The test compound's maximum inhibitory effect is represented as the Imax, while its potency is defined by the IC50. The second assay measured cAMP accumulation upon binding of the ligand to the 5-HT1A receptor. Antagonists block the effect of the standard agonist 8-OH-DPAT resulting in an increase in cAMP accumulation while agonists have the reverse effect. The test compound's maximum stimulatory or inhibitory effect is represented as the Emax while its potency is defined by either IC50 for an antagonist or EC50 for an agonist. [^3H]-8-OH-DPAT was used to determine maximum agonist or antagonist response in both functional assays.

h5HT1a receptor = target: T2, h5HT1a receptor (Homo sapiens, UniProt P08908); assay: cAMP RIA in CHO cells stably transfected with the h5HT1a receptor; format: cell-based; conditions: for EC50: agonist, forskolin-stimulated cAMP, read-out: 5-HT1A Function cAMP EC50; for IC50: antagonist, reversal of agonist 8-OH-DPAT, read-out: 5-HT1A Function cAMP IC50
T2 construct: expressed in transfected cells; host or cells: CHO cells, stably transfected
T2 sequence (P08908 1-422): T1 sequence (P08908 1-422)
Source text: as §1
Stabily transfected CHO cells were grown in DMEM containing 10% heat inactivated FBS and non-essential amino acids. The cells were plated at a density of 10(6) cells per well in a 24 well plate and incubated for 2 days in a CO2 incubator. On the second day, the media was replaced with 0.5 ml treatment buffer (DMEM+25 mM HEPES, 5 mM theophylline, 10 uM pargyline) and incubated 10 minutes at 37° C.
Wells were treated with forskolin (1 μM final conc) followed immediately by test compound (0.1 and 1 uM for initial screen) and incubated for an additional 10 min at 37° C. The reaction was terminated by removal of the media and addition of 0.5 ml ice cold assay buffer (supplied in RIA kit). Plates were stored at −20° C. prior to assessment of cAMP formation by RIA.
Compounds shown to have no agonist activities were further analyzed for ability to reverse agonist activity. In separate experiments, 6 concentrations of antagonist were preincubated for 20 minutes prior to the addition of agonist and forskolin. Cells were harvested as described. The cAMP kit was supplied by Amersham and the RIA was performed as per kit instructions.

h5-HT Transporter, sequence (P31645 whole entry): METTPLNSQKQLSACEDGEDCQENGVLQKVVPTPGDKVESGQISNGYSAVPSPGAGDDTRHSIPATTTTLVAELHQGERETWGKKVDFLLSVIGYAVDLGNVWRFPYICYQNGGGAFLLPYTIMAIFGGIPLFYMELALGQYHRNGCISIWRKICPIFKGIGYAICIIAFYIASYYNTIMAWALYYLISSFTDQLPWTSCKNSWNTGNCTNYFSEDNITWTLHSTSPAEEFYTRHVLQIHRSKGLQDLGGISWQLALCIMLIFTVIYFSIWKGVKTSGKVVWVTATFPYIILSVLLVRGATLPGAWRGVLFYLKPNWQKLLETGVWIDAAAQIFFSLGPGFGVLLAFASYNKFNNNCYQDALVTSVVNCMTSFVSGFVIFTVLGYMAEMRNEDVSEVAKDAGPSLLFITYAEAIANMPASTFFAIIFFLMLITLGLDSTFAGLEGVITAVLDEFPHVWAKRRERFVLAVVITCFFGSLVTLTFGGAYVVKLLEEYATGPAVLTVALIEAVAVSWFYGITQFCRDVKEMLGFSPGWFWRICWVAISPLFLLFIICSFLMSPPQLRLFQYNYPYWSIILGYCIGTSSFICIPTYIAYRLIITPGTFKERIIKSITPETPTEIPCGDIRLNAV

Row | Molecule | Ki (human 5-HT1A receptors [1]) [µM] | IC50 (h5-HT Transporter) [µM] | EC50 (human 5-HT1A receptors [2]; agonist potency, read-out: 5-HT1A Function GTPγS EC50) [µM] | EC50 (h5HT1a receptor) [µM] | IC50 (human 5-HT1A receptors [2]) [µM] | IC50 (h5HT1a receptor) [µM]
1 | COc1ccc(C(N)=O)c2c1OC[C@H](NCCCc1c[nH]c3ccc(F)cc13)C2 [Example 1, (3R)-3-[3-(5-fluoro-1H-indol-3-yl)propyl]amino-8-methoxychromane-5-carboxamide] | 0.113 | 0.234 | 0.489 | 0.23 | – | –
2 | COc1ccc(C(N)=O)c2c1OC[C@H](N(CCCc1c[nH]c3ccc(F)cc13)C1CCC1)C2 [Example 2, (3R)-3-{cyclobutyl[3-(5-fluoro-1H-indol-3-yl)propyl]amino}-8-methoxychromane-5-carboxamide] | 0.0104 | 0.0132 | – | – | 0.119 | 0.0921
3 | CCOc1ccc(C(N)=O)c2c1OC[C@H](N(CCCc1c[nH]c3ccc(F)cc13)C1CCC1)C2 [Example 3, (3R)-3-{cyclobutyl[3-(5-fluoro-1H-indol-3-yl)propyl]amino}-8-ethoxychromane-5-carboxamide] | 0.108 | 0.329 | – | – | 5.03 | 0.768
4 | CCCOc1ccc(C(N)=O)c2c1OC[C@H](N(CCCc1c[nH]c3ccc(F)cc13)C1CCC1)C2 [Example 4, (3R)-3-{cyclobutyl[3-(5-fluoro-1H-indol-3-yl)propyl]amino}-8-propoxychromane-5-carboxamide] | 0.0701 | 0.45 | – | 0.151 | 0.684 | –
5 | CC(C)Oc1ccc(C(N)=O)c2c1OC[C@H](N(CCCc1c[nH]c3ccc(F)cc13)C1CCC1)C2 [Example 5, (3R)-3-{cyclobutyl[3-(5-fluoro-1H-indol-3-yl)propyl]amino}-8-isopropoxychromane-5-carboxamide] | 0.0353 | 0.214 | – | 0.118 | 3.15 | –
6 | NC(=O)c1ccc(O)c2c1C[C@@H](N(CCCc1c[nH]c3ccc(F)cc13)C1CCC1)CO2 [Example 6, (3R)-3-{cyclobutyl[3-(5-fluoro-1H-indol-3-yl)propyl]amino}-8-hydroxychromane-5-carboxamide] | 0.136 | 0.347 | – | 0.312 | 2.55 | –
7 | COc1ccc(C(N)=O)c2c1OC[C@H](N(CCCc1c[nH]c3ccc(F)cc13)CCC(F)(F)F)C2 [Example 7, (3R)-3-{3,3,3-trifluoropropyl[3-(5-fluoro-1H-indol-3-yl)propyl]amino}-8-methoxychromane-5-carboxamide] | 0.636 | 2.68 | – | – | – | –
8 | COc1ccc(C(N)=O)c2c1OC[C@H](N(CCCc1c[nH]c3ccc(F)cc13)CC1CC1)C2 [Example 8, (3R)-3-{cyclopropylmethyl[3-(5-fluoro-1H-indol-3-yl)propyl]amino}-8-methoxychromane-5-carboxamide] | 0.0255 | 0.0453 | – | – | 0.442 | 0.439
9 | CCCN(CCCc1c[nH]c2ccc(F)cc12)[C@H]1COc2c(OC)ccc(C(N)=O)c2C1 [Example 10, (3R)-3-{propyl[3-(5-fluoro-1H-indol-3-yl)propyl]amino}-8-methoxychromane-5-carboxamide] | 0.0205 | 0.008 | – | 0.186 | 0.321 | –
10 | CCCCN(CCCc1c[nH]c2ccc(F)cc12)[C@H]1COc2c(OC)ccc(C(N)=O)c2C1 [Example 11, (3R)-3-{butyl[3-(5-fluoro-1H-indol-3-yl)propyl]amino}-8-methoxychromane-5-carboxamide] | 0.0987 | 0.279 | – | – | 3.03 | 0.375
11 | COc1ccc(C(N)=O)c2c1OC[C@H](N(CCCc1c[nH]c3ccc(F)cc13)CCCC(F)(F)F)C2 [Example 12, (3R)-3-{4,4,4-trifluorobutyl[3-(5-fluoro-1H-indol-3-yl)propyl]amino}-8-methoxychromane-5-carboxamide] | – | 2.58 | – | – | – | –
12 | COc1ccc(C(N)=O)c2c1OC[C@H](N(CCCc1c[nH]c3ccc(F)cc13)CC(C)C)C2 [Example 13, (3R)-3-{2-methylpropyl[3-(5-fluoro-1H-indol-3-yl)propyl]amino}-8-methoxychromane-5-carboxamide] | 0.214 | 0.339 | – | – | 2.95 | –
13 | CCN(CCCc1c[nH]c2ccc(F)cc12)[C@H]1COc2c(OC)ccc(C(N)=O)c2C1 [Example 14, (3R)-3-{ethyl[3-(5-fluoro-1H-indol-3-yl)propyl]amino}-8-methoxychromane-5-carboxamide] | 0.402 | 0.00262 | – | – | 1.37 | –
14 | COc1ccc(C(N)=O)c2c1OC[C@H](N(C)CCCc1c[nH]c3ccc(F)cc13)C2 [Example 15, (3R)-3-{methyl[3-(5-fluoro-1H-indol-3-yl)propyl]amino}-8-methoxychromane-5-carboxamide] | 1.7 | 0.16 | – | – | – | –
15 | CNC(=O)c1ccc(OC)c2c1C[C@@H](N(CCCc1c[nH]c3ccc(F)cc13)CCC(F)(F)F)CO2 [Example 17, (3R)-3-{3,3,3-trifluoropropyl[3-(5-fluoro-1H-indol-3-yl)propyl]amino}-8-methoxychromane-5-methylcarboxamide] | 0.662 | 5.54 | – | – | – | –
16 | COc1ccc(C(N)=O)c2c1OC[C@H](N(CCCc1c[nH]c3c(F)cc(F)cc13)C1CCC1)C2 [Example 18, (3R)-3-{cyclobutyl[3-(5,7-difluoro-1H-indol-3-yl)propyl]amino}-8-methoxy-chromane-5-carboxamide] | 0.0613 | 0.11 | – | – | – | 0.0942
17 | COc1ccc(C(N)=O)c2c1OC[C@H](N(CCCC1CNc3ccc(F)cc31)C1CCC1)C2 (stereo partly drawn) [Example 19, (3R)-3-{cyclobutyl[3-(5-fluoro-1H-indolin-3-yl)propyl]amino}-8-methoxy-chromane-5-carboxamide] | 0.0436 | 0.407 | – | – | – | 0.0999
18 | CCSc1ccc(C(N)=O)c2c1OC[C@H](N(CCCc1c[nH]c3ccc(F)cc13)C1CCC1)C2 [Example 23, (3R)-3-{cyclobutyl[3-(5-fluoro-1H-indol-3-yl)propyl]amino}-8-(ethylthio)chromane-5-carboxamide] | 0.138 | 0.831 | – | – | – | 0.137
19 | CN(C)c1ccc(C(N)=O)c2c1OC[C@H](N(CCCc1c[nH]c3ccc(F)cc13)C1CCC1)C2 [Example 24, (3R)-3-{cyclobutyl[3-(5-fluoro-1H-indol-3-yl)propyl]amino}-8-(dimethylamino) chromane-5-carboxamide] | 0.0727 | 0.125 | – | – | – | –
20 | (3R)-3-{2-isopropyl[3-(5-fluoro-1H-indol-3-yl)propyl]amino}-8-methoxychromane-5-carboxamide [Example 9] | 0.515 | – | – | – | – | –
